Data taken from US9266842B2, “Anti-malarial agents” (UNIVERSITY OF CAPE TOWN, priority 2012, dated 2016).
In brackets after ≈: the same amount, converted by molar mass.

Key:
P. falciparum K1 = test: Anti-malarial in vitro efficacy, assay 1, P. falciparum K1; format: cell-based; settings: Plasmodium falciparum, strain K1
Experimental: (§1) The ability of aminopyrazine derivatives according to the invention to kill P. falciparum parasites and/or to inhibit its proliferation is tested as follows:
(§2) The protocol used was as described in the supplemental material to Fiddock et al., 2004, Nature Reviews Drug Discovery, (3), p 509.
(§3) EC50s (ng/ml) are reported in Table 3 below against different strains of P. falciparum K1, NF54 (assay 1).

parasitemia = test: Anti-malarial in vivo efficacy, inhibition of parasitemia after 4 daily oral doses; settings: for inhibition in vivo at 3 mg/kg: read-out: percentages of inhibition of parasitemia, 3 mg/kg po; for inhibition in vivo at 10 mg/kg: read-out: percentages of inhibition of parasitemia, 10 mg/kg po
Text: The ability of aminopyrazine derivatives according to the invention to show antimalarial efficacy in vivo can be tested by using the protocols described in the supplemental material to Fidock et al., 2004, Nature Reviews Drug Discovery, (3), p 509.

P. falciparum NF54 = test: Anti-malarial in vitro efficacy, assay 1, P. falciparum NF54; format: cell-based; settings: Plasmodium falciparum, strain NF54
Experimental: as §1, §2, §3

EC50 (P. falciparum K1) [ng/mL] | EC50 (P. falciparum NF54) [ng/mL] | SMILES | inhibition in vivo at 3 mg/kg (parasitemia) [%] | inhibition in vivo at 10 mg/kg (parasitemia) [%]
17 (≈ 47.7 nM) |  | COc1ccc(-c2nc(-c3ccc(S(C)(=O)=O)cc3)cnc2N)cn1 [Compound 1, 3-(6-methoxypyridin-3-yl)-5-(4-(methylsulfonyl)phenyl)pyrazin-2-amine] |  | 
4 (≈ 10.2 nM) |  | CS(=O)(=O)c1ccc(-c2cnc(N)c(-c3ccc(C(F)(F)F)cc3)n2)cc1 [Compound 2, 5-(4-(methylsulfonyl)phenyl)-3-(4-(trifluoromethyl)phenyl)pyrazin-2-amine] |  | 
4.8 (≈ 12.2 nM) |  | CS(=O)(=O)c1ccc(-c2cnc(N)c(-c3ccc(C(F)(F)F)nc3)n2)cc1 [Compound 3, 5-(4-(methylsulfonyl)phenyl)-3-(6-(trifluoromethyl)pyridin-3-yl)pyrazin-2-amine] |  | 
4.9 (≈ 13.7 nM) | 5.7 (≈ 15.9 nM) | NC(=O)c1ccc(-c2cnc(N)c(-c3ccc(C(F)(F)F)cc3)n2)cc1 [Compound 4, 4-(5-amino-6-(4-(trifluoromethyl)phenyl)pyrazin-2-yl)benzamide] | 99.9 | 99.9
5.8 (≈ 16.1 nM) | 7.8 (≈ 21.7 nM) | NC(=O)c1ccc(-c2cnc(N)c(-c3ccc(C(F)(F)F)nc3)n2)cc1 [Compound 5, 4-(5-amino-6-(6-(trifluoromethyl)pyridin-3-yl)pyrazin-2-yl)benzamide] | 99.4 | 99.9
3 (≈ 6.8 nM) | 3.5 (≈ 7.93 nM) | CN1CCN(C(=O)c2ccc(-c3cnc(N)c(-c4ccc(C(F)(F)F)cc4)n3)cc2)CC1 [Compound 6, (4-(5-amino-6-(4-(trifluoromethyl)phenyl)pyrazin-2-yl)phenyl)(4-methylpiperazin-1-yl) methanone] | 99.9 | 99.9
4.4 (≈ 9.94 nM) | 4.4 (≈ 9.94 nM) | CN1CCN(C(=O)c2ccc(-c3cnc(N)c(-c4ccc(C(F)(F)F)nc4)n3)cc2)CC1 [Compound 7, (4-(5-amino-6-(6-(trifluoromethyl)pyridin-3-yl)pyrazin-2-yl)phenyl)(4-methylpiperazin-1-yl)methanone] | 81 | 99.8
2.1 (≈ 4.91 nM) | 2.3 (≈ 5.38 nM) | Nc1ncc(-c2ccc(C(=O)N3CCNCC3)cc2)nc1-c1ccc(C(F)(F)F)cc1 [Compound 8, (4-(5-amino-6-(4-(trifluoromethyl)phenyl)pyrazin-2-yl)phenyl)(piperazin-1-yl)methanone] | 99.9 | 99.9
4 (≈ 9.34 nM) | 4.6 (≈ 10.7 nM) | Nc1ncc(-c2ccc(C(=O)N3CCNCC3)cc2)nc1-c1ccc(C(F)(F)F)nc1 [Compound 9, (4-(5-amino-6-(6-(trifluoromethyl)pyridin-3-yl)pyrazin-2-yl)phenyl)(piperazin-1-yl) methanone] |  | 
4.1 (≈ 9.55 nM) |  | Nc1ncc(-c2ccc(C(=O)N3CCOCC3)cc2)nc1-c1ccc(C(F)(F)F)nc1 [Compound 10, (4-(5-amino-6-(6-(trifluoromethyl)pyridin-3-yl)pyrazin-2-yl)phenyl) (morpholino) methanone] |  | 
3.1 (≈ 7.24 nM) |  | Nc1ncc(-c2ccc(C(=O)N3CCOCC3)cc2)nc1-c1ccc(C(F)(F)F)cc1 [Compound 11, (4-(5-amino-6-(4-(trifluoromethyl)phenyl)pyrazin-2-yl)phenyl)(morpholino)methanone] |  | 
4.5 (≈ 9.86 nM) | 6.9 (≈ 15.1 nM) | CN1CCCN(C(=O)c2ccc(-c3cnc(N)c(-c4ccc(C(F)(F)F)nc4)n3)cc2)CC1 [Compound 12, (4-(5-amino-6-(6-(trifluoromethyl)pyridin-3-yl)pyrazin-2-yl)phenyl)(4-methyl-1,4-diazepan-1-yl)methanone] | 99.9 | 
18 (≈ 47.8 nM) | 18 (≈ 47.8 nM) | NC(=O)c1ccc(-c2cnc(N)c(-c3ccc(C(F)(F)F)c(F)c3)n2)cc1 [Compound 13, 4-(5-amino-6-(3-fluoro-4-(trifluoro-methyl)phenyl)pyrazin-2-yl) benzamide] | 99.9 | 99.9
7.1 (≈ 21.3 nM) | 8.5 (≈ 25.5 nM) | NC(=O)c1ccc(-c2cnc(N)c(-c3ccc(C(N)=O)cc3)n2)cc1 [Compound 15, 4,4′-(3-aminopyrazine-2,6-diyl) dibenzamide] |  | 
5.5 (≈ 11.4 nM) | 8.2 (≈ 17 nM) | CC(C)(C)N1CCN(C(=O)c2ccc(-c3cnc(N)c(-c4ccc(C(F)(F)F)cc4)n3)cc2)CC1 [Compound 20, (4-(5-amino-6-(4-(trifluoromethyl)phenyl)pyrazin-2-yl)phenyl)(4-tert-butylpiperazin-1-yl)methanone] |  | 
2.9 (≈ 6.77 nM) | 4.1 (≈ 9.57 nM) | Nc1ncc(-c2ccc(C(=O)N3CCC(O)C3)cc2)nc1-c1ccc(C(F)(F)F)cc1 (centres unmarked) [Compound 21, (4-(5-amino-6-(4-(trifluoromethyl)phenyl)pyrazin-2-yl)phenyl)(3-hydroxypyrrolidin-1-yl)methanone] | 99.6 | 
4 (≈ 9.02 nM) | 4.5 (≈ 10.1 nM) | Nc1ncc(-c2ccc(C(=O)N3CCC(O)CC3)cc2)nc1-c1ccc(C(F)(F)F)nc1 [Compound 22, (4-(5-amino-6-(6-(trifluoromethyl)pyridin-3-yl)pyrazin-2-yl)phenyl)(4-hydroxypiperidin-1-yl)methanone] |  | 
2.2 (≈ 4.97 nM) | 2.4 (≈ 5.42 nM) | Nc1ncc(-c2ccc(C(=O)N3CCC(O)CC3)cc2)nc1-c1ccc(C(F)(F)F)cc1 [Compound 23, (4-(5-amino-6-(4-(trifluoromethyl)phenyl)pyrazin-2-yl)phenyl)(4-hydroxypiperidin-1-yl)methanone] | 98.7 | 
3.1 (≈ 6.4 nM) | 4.3 (≈ 8.87 nM) | CC(C)(C)N1CCN(C(=O)c2ccc(-c3cnc(N)c(-c4ccc(C(F)(F)F)nc4)n3)cc2)CC1 [Compound 24, (4-(5-amino-6-(6-(trifluoromethyl)pyridin-3-yl)pyrazin-2-yl)phenyl)(4-(tert-butyl)piperazin-1-yl)methanone] | 87.6 | 
2.6 (≈ 5.71 nM) | 3.1 (≈ 6.81 nM) | CN1CCCN(C(=O)c2ccc(-c3cnc(N)c(-c4ccc(C(F)(F)F)cc4)n3)cc2)CC1 [Compound 25, (4-(5-amino-6-(4-(trifluoromethyl)phenyl)pyrazin-2-yl)phenyl)(4-methyl-1,4-diazepan-1-yl)methanone] | 90 | 
4.3 (≈ 9.72 nM) | 5.9 (≈ 13.3 nM) | Nc1ncc(-c2ccc(C(=O)N3CCCNCC3)cc2)nc1-c1ccc(C(F)(F)F)nc1 [Compound 26, (4-(5-amino-6-(6-(trifluoromethyl)pyridin-3-yl)pyrazin-2-yl)phenyl) (1,4-diazepan-1-yl)methanone] |  | 
2.2 (≈ 4.98 nM) | 3.2 (≈ 7.25 nM) | Nc1ncc(-c2ccc(C(=O)N3CCCNCC3)cc2)nc1-c1ccc(C(F)(F)F)cc1 [Compound 27, (4-(5-amino-6-(4-(trifluoromethyl)phenyl)pyrazin-2-yl)phenyl)(1,4-diazepan-1-yl)methanone] | 88 | 
10 (≈ 23.3 nM) | 17 (≈ 39.7 nM) | Nc1ncc(-c2ccc(C(=O)N3CCC(N)C3)cc2)nc1-c1ccc(C(F)(F)F)nc1 (centres unmarked) [Compound 28, (4-(5-amino-6-(6-(trifluoromethyl)pyridin-3-yl)pyrazin-2-yl)phenyl)(3-aminopyrrolidin-1-yl)methanone] |  | 
4.8 (≈ 11.2 nM) | 8.8 (≈ 20.6 nM) | Nc1ncc(-c2ccc(C(=O)N3CCC(N)C3)cc2)nc1-c1ccc(C(F)(F)F)cc1 (centres unmarked) [Compound 29, (4-(5-amino-6-(4-(trifluoromethyl)phenyl)pyrazin-2-yl)phenyl)(3-aminopyrrolidin-1-yl)methanone] |  | 
5.2 (≈ 12.1 nM) | 8.6 (≈ 20 nM) | Nc1ncc(-c2ccc(C(=O)N3CCC(O)C3)cc2)nc1-c1ccc(C(F)(F)F)nc1 (centres unmarked) [Compound 30, (4-(5-amino-6-(6-(trifluoromethyl)pyridin-3-yl)pyrazin-2-yl)phenyl)(3-hydroxypyrrolidin-1-yl)methanone] |  | 
7.6 (≈ 17.2 nM) | 8.5 (≈ 19.2 nM) | Nc1ncc(-c2ccc(C(=O)N3CCC(N)CC3)cc2)nc1-c1ccc(C(F)(F)F)nc1 [Compound 31, (4-(5-amino-6-(6-(trifluoromethyl)pyridin-3-yl)pyrazin-2-yl)phenyl)(4-aminopiperidinyl)methanone] |  | 
2.9 (≈ 6.57 nM) | 4.3 (≈ 9.74 nM) | Nc1ncc(-c2ccc(C(=O)N3CCC(N)CC3)cc2)nc1-c1ccc(C(F)(F)F)cc1 [Compound 32, (4-(5-amino-6-(4-(trifluoromethyl)phenyl)pyrazin-2-yl)phenyl)(4-aminopiperidinyl)methanone] |  | 
4 (≈ 9.51 nM) |  | Nc1ncc(-c2ccc(S(=O)(=O)C3CC3)cc2)nc1-c1ccc(C(F)(F)F)nc1 [Compound 34, 5-(4-(cyclopropylsulfonyl)phenyl)-3-(6-(trifluoromethyl)pyridin-3-yl) pyrazin-2-amine] |  | 
 | 3.2 (≈ 7.47 nM) | Nc1ncc(-c2ccc(C(=O)N3CC[C@@H](O)C3)cc2)nc1-c1ccc(C(F)(F)F)cc1 [Compound 35, (R)-(4-(5-amino-6-(4-(trifluoro-methyl)phenyl)pyrazin-2-yl)phenyl)(3-hydroxypyrrolidin-1-yl) methanone] | 99.9 | 99.9
 | 2.6 (≈ 6.07 nM) | Nc1ncc(-c2ccc(C(=O)N3CC[C@H](O)C3)cc2)nc1-c1ccc(C(F)(F)F)cc1 [Compound 36, (S)-(4-(5-amino-6-(4-(trifluoro-methyl)phenyl)pyrazin-2-yl)phenyl)(3-hydroxypyrrolidin-1-yl)methanone] | 99.9 | 99.9
